These results are taken from patent US20260234188A1, “CHEMOKINE-BINDING PEPTIDES” (Oxford University Innovation Limited, priority 2022, published 2026).

Entries after “also recorded” stand apart in the source; their conditions may differ.

One test concerns panel of up to 42 human chemokines. The experiment in a line: Phage-display next generation sequencing screen of overlapping hexadecapeptide libraries, chemokines displayed on streptavidin beads. It is filed as binding. Particulars: log2E greater than 5, chemokines named by first part of UniProt Entry Name, peptides binding complement C5a (control) excluded. The text has this:
FIG. 1. Exemplar results from phage display screens. Phage-display libraries were constructed and analysed as described in (McLaughlin, 2013) (Tonikian, 2007). […] FIG. 1A, CC chemokines against evasin A library. FIG. 1B, CXC chemokines against the evasin B library. FIG. 1C, CXC and CX3C chemokines against the viral chemokine binding protein library. FIG. 1D, CXC chemokines against the chemokine library. […] Identified hexadecapeptides were mapped to the position in the originating protein (x-axis) and to fold enrichment (log 2 E, left y-axis). Regions of interest (ROI) were defined where the cumulative residue log 2 E, (clog 2 E:r, right y-axis) exceeds the 95% upper confidence interval of the median clog 2 E:r for the entire protein (indicated as a horizontal dotted line in each panel). Proteins are referred to by their UniProt ID.
Hexadecapeptides were identified using a phage-display next generation sequencing approach (McLaughlin, 2013). Libraries containing a total of 55662 overlapping peptides (from the tick chemokine binding proteins shown in Tables 3A and 3B, the viral chemokine binding proteins shown in Table 3C, the human chemokines shown in Table 3 E, and the human/viral chemokine receptors and other chemokine-binding proteins shown in Table 3D) were first constructed, and then screened against a panel of up to 42 human chemokines, as shown in Table 3F.
On to CR9113 (IIFSYVVVFLVSWLPY), for which the “Chemokines Bound” value is “CCL17, CCL20, and CCL22, CCL28, and X3CL1, CXL10, and CXL11, SDF1, and CXL13, CXL14, and IL8”. For the substance CR9141 (IIIWALAILASMPGLY), the “Chemokines Bound” value was “CCL20, CCL28,; also recorded: CXL11, SDF1”. CR9192 (IISLVVWGLSVIISSS): the “Chemokines Bound” value is “CCL18, CXL10, and CXL13, CXL14, and IL8”. For CR9218 (IITSVLAWVTAILATL), the “Chemokines Bound” value was “CCL17, CCL18, and CXL11, CXL14, and IL8”.

On to CR9282 (ILAFFAAWLPYYIGIS), for which the “Chemokines Bound” value was “CCL11, CCL18,; also recorded: X3CL1, CXL10,; also recorded: CXL11, CXL13”.

With CR9284 (ILAFFASWLPYYIGIS), the “Chemokines Bound” value is reported as “CCL17, CCL18,; also recorded: CCL25”.

CR9291 (ILALVGNTLALWLFIR): the “Chemokines Bound” value was “CCL2, CCL22,; also recorded: CCL25, IL8”. CR9432 (ILMFLSDFSFIFSSWA): the “Chemokines Bound” value was “CCL1, CXL10,; also recorded: CXL11, SDF1,; also recorded: CXL14, IL8”. On the same count and under the same terms, for “CR9515: chemokine binding peptide of Table 5A used in FIG. 5 combinations (ILYQFELFGFTLIFFK)” the value was “CCL18, CCL19,; also recorded: CXL10, CXL14”; for CR9587 (IMYSIIAFVGLLGNGL), “CCL17, CCL18,; also recorded: CCL20, CXL14”. For CR9887 (ISLFAGVSFLINLSMD), the “Chemokines Bound” value is “CCL17, CCL18,; also recorded: CCL25”. On to CR9889 (ISLLAEVLMFLFPNII), for which the “Chemokines Bound” value is reported as “CCL17, CCL18,; also recorded: CCL20, CCL25,; also recorded: CCL28, CXL13”. Take CR9948 (ISVAWHWVFGSFLSKM): the “Chemokines Bound” value is “CCL17, CCL18, and CCL20, CCL22, and CCL25, X3CL1, and CXL11, CXL14, and IL8”.

The test is the same for the next values; noted with them: log2E greater than 5, chemokines named by first part of UniProt entry name, C5a (control) binders excluded.
With CR10008 (ITLFASDFVLMWAVFF), the “Chemokines Bound” value is given as “CCL1, CCL22,; also recorded: CXL10, CXL11”. Turning to CR10175 (IVTIIITFFLSWSPYH), the “Chemokines Bound” value is recorded as “CCL1, CCL17,; also recorded: CCL18, CCL20,; also recorded: CCL22, CCL25,; also recorded: CCL28, X3CL1,; also recorded: CXL10, CXL11,; also recorded: CXL14”. Consider CR10275 (IYLLNLAISDLFFLLT), for which the “Chemokines Bound” value is recorded as “CCL17, CCL18,; also recorded: CCL25, CXL10,; also recorded: CXL13”.

For CR10279 (IYLLNLAISNLLFLVT), the “Chemokines Bound” value was “CCL28, SDF1,; also recorded: CXL13, IL8”. The same measure, in the same setting: for CR10681 (KIIFSYVVVFLVAWLP) the value was “CCL25, CCL28, and SDF1”; for CR10825 (KLIFAIVVAYFLSWGP), “CCL17, CCL28,; also recorded: CXL14”; for CR11295 (KVLWALQYIGLGFFAA), “CCL17, CCL18,; also recorded: CCL2, CXL10,; also recorded: SDF1, CXL14”. CR11478 (LAFIYVLMFLANAIGN): the “Chemokines Bound” value is given as “CCL1, CCL20,; also recorded: CXL11, SDF1,; also recorded: CXL13, CXL14”. Take CR11556 (LAKLEAFFLNLSIYWS): the “Chemokines Bound” value was “CCL18, CCL2, and CCL25, CCL28, and CCL8, X3CL1, and CXL10, CXL11, and SDF1, CXL13, and IL8”. Same read-out and setting: as for CR11604 (LALSISLLAEVLMFLF), the entry is “CCL17, CCL18,; also recorded: CCL20, CCL25,; also recorded: CXL10, CXL13,; also recorded: CXL14, IL8”; as for CR11719 (LATFKILIAIVWGVMP), “CCL1, CCL18,; also recorded: CCL20, CCL22,; also recorded: CCL25, CCL28,; also recorded: CXL10, SDF1”; as for CR11720 (LATFKILICIVWGVMP), “CCL17, CCL18,; also recorded: CCL19, CCL20,; also recorded: CCL25, CXL10,; also recorded: CXL14”. In the case of CR11776 (LAVKIVFSFIWGVLPT), the “Chemokines Bound” value is listed as “CCL17, CCL18,; also recorded: CCL19, CCL20,; also recorded: CCL22, CCL25,; also recorded: CCL8, X3CL1,; also recorded: CXL10, CXL11,; also recorded: SDF1, CXL13,; also recorded: CXL14, IL8”.

Turning to “CR11907: chemokine binding peptide of Table 5A used in FIG. 5 combinations (LDFILALVGNTLALWL)”, the “Chemokines Bound” value was “CCL11, CCL18, and CCL2”. Same read-out and setting: as for CR12037 (LENMLFASFYLLDFIL), the entry is “CCL22, CXL10,; also recorded: CXL11, SDF1,; also recorded: CXL13, IL8”.

Regarding CR12163 (LFIGIKIVYAFLWGIF), the “Chemokines Bound” value is “CCL18, CCL19,; also recorded: CCL2, CCL25,; also recorded: CCL28, X3CL1,; also recorded: CXL10, SDF1,; also recorded: CXL13, CXL14”. The same measure, in the same setting: for CR12240 (LFMFVLSVLGNLTVVS) the value was “CCL17, CCL18,; also recorded: CCL19, CCL25,; also recorded: CCL28, CXL10,; also recorded: CXL11, SDF1”; for CR12277 (LFSFNRFFCQLVYFIY), “CCL18, CCL25,; also recorded: X3CL1, CXL10”.

Regarding CR12308 (LFTLYVSTLDFCIVFI), the “Chemokines Bound” value was “CCL20, CCL22, and CCL28, CXL10, and SDF1”. As to CR12330 (LFVMLFSYGFTLRTLF), the “Chemokines Bound” value is “CCL17, CCL18, and CCL20, CCL22, and CCL28, CXL14, and IL8”.

For the substance CR12432 (LGIILFSYVEILRTLF), the “Chemokines Bound” value is “CCL17, CCL18, and CXL10, CXL11, and IL8”.

CR12439 (LGIMLFAYSMIIRTLQ): the “Chemokines Bound” value was “CCL17, CCL18,; also recorded: CCL20, CCL25”. For the substance CR12569 (LGVWLMAIVGTFLNVL), the “Chemokines Bound” value is given as “CCL2, X3CL1,; also recorded: CXL10, CXL11”.

CR12869 (LIWVISLLVSLPQIIY): the “Chemokines Bound” value was “CCL17, CCL18, and X3CL1, CXL14, and IL8”. As for CR12872 (LIYLFLLLWEDTQGWG), the “Chemokines Bound” value is “CCL1, CCL18, and CCL19, CCL2, and CCL20, CCL25, and CXL10, SDF1, and IL8”.

For the substance CR13108 (LLFFVFSFPYHVLNLL), the “Chemokines Bound” value is reported as “CCL17, CCL18,; also recorded: CXL10, CXL11,; also recorded: CXL14, IL8”.

CR13203 (LLIMLFSYGFTLRTLF): the “Chemokines Bound” value is “CCL18, CCL22, and CCL28, X3CL1, and SDF1”. On to CR13324 (LLMLGLELLFGFFIPL), for which the “Chemokines Bound” value was “CCL1, CCL11,; also recorded: CCL17, CCL18,; also recorded: CCL2, CCL20,; also recorded: CCL22, CCL28,; also recorded: CXL10, CXL11,; also recorded: SDF1, CXL14”. On to CR13391 (LLQALYSAVVPLIYSC), for which the “Chemokines Bound” value is reported as “CCL1, CCL18,; also recorded: CXL14”. With CR13458 (LLSVLFTLYVSTLDFS), the “Chemokines Bound” value is “CCL18, CCL2, and CCL20, CXL10, and CXL11, SDF1, and CXL13, CXL14, and IL8”. As for CR13507 (LLTWLAGLIFSVPAAV), the “Chemokines Bound” value is listed as “CCL1, CCL11,; also recorded: CCL17, CCL18,; also recorded: CCL19, CCL2,; also recorded: CCL20, CCL22,; also recorded: CCL25, CCL28,; also recorded: X3CL1, CXL10,; also recorded: CXL11, SDF1,; also recorded: CXL14, IL8”. Still for that read-out and setting: as for CR13605 (LMFMIFAYTFIVKTLV), the entry is “CCL17, CCL18,; also recorded: CCL20, CCL22,; also recorded: CXL10”. CR13634 (LMLVFSFVSMLASLAH): the “Chemokines Bound” value is on record as “CCL19, CCL28,; also recorded: CXL13, CXL14”.

For CR13966 (LPTMVFSFFYVIFCKA), the “Chemokines Bound” value is given as “CCL20, CCL25,; also recorded: SDF1, CXL14”. Take CR13967 (LPTMVFSFFYVIFSKA): the “Chemokines Bound” value is on record as “CCL1, CCL17,; also recorded: CCL18, CCL19,; also recorded: CCL20, CCL28,; also recorded: CXL10”. For the substance CR14086 (LQTVITFALYVGQFLA), the “Chemokines Bound” value is “CCL15, CCL2,; also recorded: CCL28, X3CL1”. Consider CR14316 (LSISLLAEVLMFLFPN), for which the “Chemokines Bound” value was “CCL17, CCL18,; also recorded: CCL19, CCL2,; also recorded: CCL20, CCL22,; also recorded: CCL25, X3CL1,; also recorded: CXL14”.

As to CR14365 (LSLSISLLAEVLMFLF), the “Chemokines Bound” value is listed as “CCL11, CCL19,; also recorded: CCL28, SDF1,; also recorded: CXL13, IL8”. The same measure, in the same setting: as for CR14548 (LTGFLFYLNMYASIYF), the entry is “CCL18, CCL19, and CCL22, CCL28, and CXL10, CXL11, and SDF1, CXL13, and IL8”.
